# According to patent US20040067965A1, “Antiviral method of use” (priority 2001, published 2004):
# Tests used:
# [1] = system: HCMV strain AD169; test: HCMV plaque reduction (inhibition of virus replication in cell culture); assay type: cell-based, human cytomegalovirus; details: for IC50: Human betaherpesvirus 5, MRC5, HCMV strain AD169, plaque formation, MRC-5 cells, read-out: IC50 = 50% Inhibitory Concentration of HCMV strain AD169 induced plaque formation in MRC-5 Cells
# Excerpt: All materials required for this testing are commercially available. The testing method described is well documented in the literature, see, e.g. Colacino, J M and Lopez C., 1983, “Efficacy and selectivity of some nucleoside analogs as anti-human cytomegalovirus agents.” Antimicrob. Agents Chemother. 24:505-508; Colacino, J M and Lopez C., 1985, “Antiviral activity of 2′-deoxy-2′-fluoro-beta-D-arabinofuranosyl-5-iodocytosine against human cytomegalovirus in human skin fibroblasts.” Antimicrob. Agents Chemother. 28:252-258; and Mauldin, S C, Paget C J Jr., Jones C D, Colacino J M, Baxter A J, Staschke K A, Johansson N G, and Vrang L., 1998, “Synthesis and antiviral activity of prodrugs of the nucleoside 1-[2′,3′-dideoxy-3′-C-(hydroxymethyl)-beta-D-erythropentofuranosyl] cytosine.” Bioorg. Med Chem. 6:577-585.
# Human fibroblast cells, foreskin or fetal lung cells, are infected with human cytomegalovirus. The cells are incubated with standard cell culture media containing no or increasing concentrations of ALIMTA. […] Additionally the yield of virus produced in the non-treated infected cell control cultures is compared to the yield of virus produced in the treated infected cell cultures.
# The percent inhibition of virus replication can be determined and the concentration of molecule required to inhibit viral replication by 50% (IC50) and 90% (IC90) can be calculated using linear regression analysis.
# [2] = in vitro; assay type: cell-based; details: human
SMILES,IC50 [1],CC50 [2],Comments (HCMV screening summary) ([1]; HCMV strain AD169 in MRC-5 cells),"TI (Therapeutic Index) = TC50/IC50 ([1]; TC50 (MRC-5) / IC50 (HCMV AD169 plaque formation), called selective index in text)"
Nc1nc(O)c2ncn(COC(CO)CO)c2n1 [Ganciclovir],6.37 µM,> 100 µM,–,–
"Nc1nc2[nH]cc(CCc3ccc(C(=O)N[C@@H](CCC(=O)[O-])C(=O)[O-])cc3)c2c(=O)[nH]1.[Na+].[Na+] [ALIMTA, disodium N-[4-[2-(2-amino-4,7-dihydro-4-oxo-3H-pyrrolo[2,3-d]-pyrimidin-5-yl)ethyl]benzoyl]-L-glutamic acid salt]",0.29 µM,> 100 µM,High activity,>344.8
